In ChEMBL document CHEMBL1201862, “PubChem BioAssay data set” (2004):
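Tested at 5 concentrations; 48 h exposure; 96-well plates; endpoints linearly interpolated, else capped at highest concentration. Here, GI50 denotes the concentration required for 50% inhibition of growth.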 Activity calls are given as the source filed them. Rule as the data show it: active = GI50 up to about 1.1 µM and inactive = higher.

Tests used:
Experiment in all cases: DTP human tumour cell line panel, 48 h
SNB-19 = tested on: SNB-19
PC-3 = tested on: PC-3
SF-268 = tested on: SF-268
MDA-N = tested on: MDA-N
SF-539 = tested on: SF-539
MOLT-4 = tested on: MOLT-4
NCI-H460 = tested on: NCI-H460
HCT-116 = tested on: HCT-116
DU-145 = tested on: DU-145
MDA-MB-231 = tested on: MDA-MB-231
SF-295 = tested on: SF-295
HCC 2998 = tested on: HCC 2998
MCF7 = tested on: MCF7
OVCAR-4 = tested on: OVCAR-4
HL-60 = tested on: HL-60
SW-620 = tested on: SW-620
SN12C = tested on: SN12C
SK-OV-3 = tested on: SK-OV-3
SK-MEL-5 = tested on: SK-MEL-5
NCI-H23 = tested on: NCI-H23
SK-MEL-28 = tested on: SK-MEL-28
UACC-257 = tested on: UACC-257
OVCAR-5 = tested on: OVCAR-5
OVCAR-3 = tested on: OVCAR-3
CCRF-CEM = tested on: CCRF-CEM
TK-10 = tested on: TK-10
HT-29 = tested on: HT-29
NCI/ADR-RES = tested on: NCI/ADR-RES
NCI-H522 = tested on: NCI-H522
A498 = tested on: A498
Malme-3M = tested on: Malme-3M
HCT-15 = tested on: HCT-15
K562 = tested on: K562
COLO 205 = tested on: COLO 205
T47D = tested on: T47D
UO-31 = tested on: UO-31
KM12 = tested on: KM12
OVCAR-8 = tested on: OVCAR-8
CAKI-1 = tested on: CAKI-1
SK-MEL-2 = tested on: SK-MEL-2
MDA-MB-435 = tested on: MDA-MB-435
M14 = tested on: M14
U-251 = tested on: U-251
RPMI-8226 = tested on: RPMI-8226
EKVX = tested on: EKVX
UACC-62 = tested on: UACC-62
RXF 393 = tested on: RXF 393
A549 = tested on: A549
LOX IMVI = tested on: LOX IMVI
HOP-62 = tested on: HOP-62
NCI-H226 = tested on: NCI-H226
HOP-92 = tested on: HOP-92
ACHN = tested on: ACHN
IGROV-1 = tested on: IGROV-1
BT-549 = tested on: BT-549
Hs-578T = tested on: Hs-578T
786-0 = tested on: 786-0
SNB-75 = tested on: SNB-75

Measured: GI50

CC(=O)O[C@H]1C[C@H](O[C@H]2[C@@H](O)C[C@H](O[C@H]3[C@@H](O)C[C@H](O[C@H]4CC[C@@]5(C)[C@H](CC[C@@H]6[C@@H]5CC[C@]5(C)[C@@H](C7=CC(=O)OC7)CC[C@]65O)C4)O[C@@H]3C)O[C@@H]2C)O[C@H](C)[C@H]1O[C@@H]1O[C@H](CO)[C@@H](O)[C@H](O)[C@H]1O
active: SNB-19 65.8 nM | PC-3 15.2 nM | SF-268 < 12.5 nM | MDA-N 39.8 nM | SF-539 < 14 nM | NCI-H460 < 10 nM | HCT-116 < 10 nM | DU-145 < 10 nM | MDA-MB-231 256 nM | SF-295 < 16.1 nM | HCC 2998 61.5 nM | MCF7 13 nM | OVCAR-4 < 17.9 nM | HL-60 14.9 nM | SW-620 20.2 nM | SN12C 24.3 nM | SK-OV-3 39.5 nM | SK-MEL-5 23.7 nM | NCI-H23 < 10 nM | SK-MEL-28 136 nM | UACC-257 72.6 nM | OVCAR-5 34.2 nM | OVCAR-3 < 10 nM | CCRF-CEM 26.9 nM | TK-10 17.4 nM | HT-29 14.4 nM | NCI/ADR-RES < 16.9 nM | NCI-H522 < 10 nM | A498 26.9 nM | Malme-3M 27.8 nM | K562 81.5 nM | COLO 205 49.1 nM | T47D 38.7 nM | UO-31 24.2 nM | KM12 65 nM | OVCAR-8 27.5 nM | CAKI-1 < 10 nM | SK-MEL-2 45.2 nM | MDA-MB-435 34 nM | M14 63.4 nM | U-251 32 nM | RPMI-8226 37.3 nM | EKVX < 14.8 nM | UACC-62 132 nM | RXF 393 28.8 nM | A549 < 10 nM | LOX IMVI < 15.9 nM | HOP-62 < 10 nM | NCI-H226 103 nM | HOP-92 48 nM | ACHN < 10 nM | IGROV-1 < 10 nM | BT-549 < 16.7 nM | Hs-578T < 10 nM | 786-0 16.2 nM | SNB-75 68.7 nM
inactive: MOLT-4 > 100000 nM
23.1 nM: HCT-15
